Data as given in publication PMC10615177 (ACS infectious diseases, 2023).
≈ marks a conversion by molar mass, not a printed value. Where “and” joins values, the source holds several entries; their conditions need not be identical. Equal values may be shown once. Read-outs that look alike come from different tables or passages of the source.

How the values were obtained:
[1] = system: T. cruzi Dm28c epimastigotes; test: T. cruzi epimastigote growth inhibition; format: cell-based, Trypanosoma cruzi; settings: read-out: T. cruzi IC50 (EPI)
[2] = target: M. tuberculosis MmpL3 (MtMmpL3) (Mycobacterium tuberculosis, UniProt P9WJV5); test: Surface plasmon resonance binding to MmpL3
M. tuberculosis Erdman = M. tuberculosis Erdman growth inhibition; format: cell-based, Mycobacterium tuberculosis; settings: for MIC: Mycobacterium tuberculosis, ERDMAN, read-out: Mtb Erdman MIC
[3] = system: T. brucei bloodstream forms; test: T. brucei bloodstream form growth inhibition; format: cell-based, Trypanosoma brucei; settings: read-out: T. brucei IC50
in vitro [4] = settings: human
in vitro [5] = settings: human; remark: listed apart in the source
E. coli = E. coli growth inhibition; format: cell-based, Escherichia coli; settings: for IC50: read-out: Ec IC50
[6] = system: Plasmodium falciparum asexual blood stages; test: P. falciparum asexual blood stage; format: cell-based
[7] = system: L. donovani promastigotes; test: L. donovani promastigote growth inhibition; format: cell-based, Leishmania donovani; settings: read-out: L. donovani IC50
[8] = system: T. cruzi Dm28c intracellular amastigotes; test: T. cruzi intracellular amastigote inhibition; format: cell-based, Trypanosoma cruzi; settings: read-out: T. cruzi IC50 (PAR)
M. tuberculosis H37Rv = M. tuberculosis H37Rv growth inhibition; format: cell-based, Mycobacterium tuberculosis; settings: for MIC: Mycobacterium tuberculosis, H37RV, read-out: Mtb H37Rv MIC
M. tuberculosis HN878 = M. tuberculosis HN878 growth inhibition; format: cell-based, Mycobacterium tuberculosis; settings: for MIC: HN878, read-out: Mtb HN878 MIC
M. smegmatis = M. smegmatis cell growth inhibition; format: cell-based, Mycobacterium smegmatis
[9] = system: L. mexicana promastigotes; test: L. mexicana promastigote growth inhibition; format: cell-based, Leishmania mexicana
[10] = system: M. abscessus rough variant; test: microbe, parasite or virus in culture; format: cell-based
[11] = system: HepG2 (human hepatocellular carcinoma) cells; test: HepG2 cell line viability; settings: 20 μM
U2OS host cells = test: U2OS host cell growth inhibition; settings: read-out: T. cruzi CC50 (U20S)
[12] = DSC of DSPG bilayers with inhibitor; format: physicochemical; settings: for Tm (main transition) / ΔH / ΔT1/2: 10 wt % inhibitor, PBS pH 7.4, heating
[13] = system: M. abscessus smooth variant; test: microbe, parasite or virus in culture; format: cell-based
[14] = DSC of DMPC bilayers with inhibitor; format: physicochemical; settings: for Tm (main transition) / ΔH / ΔT1/2: 10 wt % inhibitor, PBS pH 7.4, heating; for Decrease of Tm compared to DMPC without inhibitor: heating
Bacillus subtilis = test: B. subtilis growth inhibition; format: cell-based; settings: Bacillus subtilis, read-out: Bs IC50
[15] = KD, 1:1 model, 1:1 binding model, from ratio of rate constants
[16] = KD, 2-state, two-state model, from rate constants
[17] = Plasmodium falciparum, read-out: PfABS IC50 (μM ± S.E.), asexual blood stages
[18] = Mycobacterium tuberculosis, HN878, read-out: Mtb HN878 IC50, dose-response curves
[19] = Mycolicibacterium smegmatis, read-out: Ms IC50, M. smegmatis
[20] = read-out: Mtb HN878 IC50, dose-response curves

Sequence of M. tuberculosis MmpL3 (MtMmpL3) (P9WJV5 whole entry): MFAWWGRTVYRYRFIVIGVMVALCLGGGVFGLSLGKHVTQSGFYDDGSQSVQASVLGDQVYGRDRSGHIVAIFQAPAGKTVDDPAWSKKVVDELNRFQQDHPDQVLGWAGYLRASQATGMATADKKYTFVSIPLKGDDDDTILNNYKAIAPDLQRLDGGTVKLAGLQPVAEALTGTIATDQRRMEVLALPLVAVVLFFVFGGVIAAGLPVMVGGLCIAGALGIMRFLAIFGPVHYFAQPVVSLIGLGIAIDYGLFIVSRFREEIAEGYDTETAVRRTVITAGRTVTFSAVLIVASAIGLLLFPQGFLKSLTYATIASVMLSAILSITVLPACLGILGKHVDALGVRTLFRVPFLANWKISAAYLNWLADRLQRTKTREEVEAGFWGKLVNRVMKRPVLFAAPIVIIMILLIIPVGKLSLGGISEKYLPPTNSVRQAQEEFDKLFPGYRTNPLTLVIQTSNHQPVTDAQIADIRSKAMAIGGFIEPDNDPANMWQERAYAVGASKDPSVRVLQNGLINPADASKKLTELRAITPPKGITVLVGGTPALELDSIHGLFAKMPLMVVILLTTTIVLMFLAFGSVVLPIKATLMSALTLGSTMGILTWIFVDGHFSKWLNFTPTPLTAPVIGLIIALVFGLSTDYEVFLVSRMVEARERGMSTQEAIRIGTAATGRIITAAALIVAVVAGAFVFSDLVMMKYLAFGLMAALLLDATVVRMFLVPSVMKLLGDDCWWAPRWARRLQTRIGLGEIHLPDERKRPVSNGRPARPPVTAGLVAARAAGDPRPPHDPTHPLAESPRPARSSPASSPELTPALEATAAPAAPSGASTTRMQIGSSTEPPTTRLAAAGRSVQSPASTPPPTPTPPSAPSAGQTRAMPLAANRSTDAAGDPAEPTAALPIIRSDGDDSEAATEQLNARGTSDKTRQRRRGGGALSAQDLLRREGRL

Q: Which IC50 ([1]; Trypanosoma cruzi) does the source give for `CCCC1(NCC(=O)NCC=C(C)CCC=C(C)C)C2CC3CC(C2)CC1C3` (stereo not drawn) [Compound 14d, N-(3,7-dimethylocta-2,6-dien-1-yl)-2-((2-propyladamantan-2-yl)amino)acetamide] here?
A: 14 ± 5 µM

Q: And the koff [2]?
A: 0.754 s⁻¹

Q: And the kon [2]?
A: 3000 M⁻¹ s⁻¹

Q: And the Kd [2, 15]?
A: 252 µM

Q: And the Kd [2, 16]?
A: 267 µM

Q: And the ka1 ([2]; two-state model)?
A: 3277 M⁻¹ s⁻¹

Q: What about the ka2 ([2]; two-state model) of the same compound?
A: 0.005907 s⁻¹

Q: And the kd1 ([2]; two-state model)?
A: 1.04 s⁻¹

Q: And the kd2 ([2]; two-state model)?
A: 0.03103 s⁻¹

Q: And the MIC (M. tuberculosis Erdman)?
A: 32 µM (≈ 12.4 µg/mL)

Q: What about the IC50 ([3]; Trypanosoma brucei) of the same compound?
A: 2.3 ± 0.1 µM

Q: And the CC50 (in vitro [4])?
A: 9.1 ± 0.4 µM

Q: And the viability at 20 µM (in vitro [5])?
A: 100%

Q: What about the “Ec IC50” value (E. coli) of the same compound?
A: No inhibition

Q: What about the IC50 [6, 17] of the same compound?
A: 5.27 ± 0.41 µM

Q: What about the IC50 ([7]; Leishmania donovani) of the same compound?
A: 8.4 ± 2 µM

Q: What about the IC50 ([8]; Trypanosoma cruzi, U2OS) of the same compound?
A: 2.8 ± 0.3 µM

Q: And the MIC (M. tuberculosis H37Rv)?
A: 32 µM (≈ 12.4 µg/mL)

Q: What about the IC50 (M. tuberculosis HN878; [18]) of the same compound?
A: > 25 µM

Q: And the MIC (M. tuberculosis HN878; Mycobacterium tuberculosis)?
A: 25 µM (≈ 9.67 µg/mL)

Q: And the IC50 (M. smegmatis; [19])?
A: 49 ± 5 µM

Q: And the IC50 ([9]; Leishmania mexicana, read-out: L. mexicana IC50, promastigotes)?
A: 0.73 ± 0.2 µM

Q: With `CCCC1(NCCNCC=C(C)CCC=C(C)C)C2CC3CC(C2)CC1C3` (stereo not drawn) [Compound 8d, N-(3,7-dimethylocta-2,6-dien-1-yl)-N´-(2-propyladamantan-2-yl)ethane-1,2-diamine] as the compound, how does the “Ma(R) MIC” value [10] read?
A: 10 µM

Q: What about the IC50 ([1]; epimastigotes) of the same compound?
A: 2.1 ± 0.9 µM

Q: What about the “HepG2 % viability @ 20 μM” value [11] of the same compound?
A: 100%

Q: What about the koff ([2]; 1:1 Langmuir binding model) of the same compound?
A: 0.5403 s⁻¹

Q: And the Kd ([2]; read-out: KD, 1:1 model, 1:1 binding model, from ratio of rate constants)?
A: 91 µM

Q: And the Kd ([2]; read-out: KD, 2-state, two-state model, from rate constants)?
A: 106 µM

Q: And the ka1 ([2]; two-state model)?
A: 7325 M⁻¹ s⁻¹

Q: What about the ka2 ([2]; two-state model) of the same compound?
A: 0.00968 s⁻¹

Q: What about the kd1 ([2]; two-state model) of the same compound?
A: 0.9488 s⁻¹

Q: And the kd2 ([2]; two-state model)?
A: 0.04246 s⁻¹

Q: What about the “Mtb Erdman MIC” value (M. tuberculosis Erdman) of the same compound?
A: 13 µM

Q: And the IC50 ([3]; bloodstream forms)?
A: 0.88 ± 0.2 µM

Q: What about the CC50 (U2OS host cells) of the same compound?
A: 1.6 ± 0.1 µM

Q: And the “Tm (main transition)” value [12]?
A: 50.0 °C

Q: What about the ΔH [12] of the same compound?
A: 11.5 kcal/mol

Q: And the ΔT1/2 [12]?
A: 1.1 °C

Q: What about the “Broadening of main transition peak ΔΤ1/2 compared to pure DSPG” value ([12]; heating) of the same compound?
A: 0.2–1.6 °C

Q: What about the “Decrease of Tm compared to DSPG alone” value ([12]; heating) of the same compound?
A: 3–4 °C

Q: What about the IC50 (E. coli) of the same compound?
A: 7.6 µM

Q: And the IC50 ([6]; read-out: PfABS IC50 (μM ± S.E.), asexual blood stages)?
A: 0.53 ± 0.22 µM

Q: And the “Ma(S) MIC” value [13]?
A: 10 µM

Q: And the IC50 ([7]; promastigotes)?
A: 2 ± 0.2 µM

Q: And the IC50 ([8]; intracellular amastigotes in U2OS host cells)?
A: 0.6 ± 0.5 µM

Q: What about the “Mtb H37Rv MIC” value (M. tuberculosis H37Rv) of the same compound?
A: 13 µM

Q: And the IC50 (M. tuberculosis HN878; [20])?
A: 2.6 ± 1 µM

Q: What about the “Mtb HN878 MIC” value (M. tuberculosis HN878; visual inspection) of the same compound?
A: 3 µM

Q: And the “Tm (main transition)” value [14]?
A: 17.5 °C

Q: What about the ΔH [14] of the same compound?
A: 5.4 kcal/mol

Q: What about the ΔT1/2 [14] of the same compound?
A: 2.2 °C

Q: And the “Decrease of Tm compared to DMPC without inhibitor” value [14]?
A: ~6 °C

Q: And the IC50 (M. smegmatis; read-out: Ms IC50, M. smegmatis)?
A: 4.3 ± 0.8 µM

Q: And the “Less active than 8b/SQ109, L. mexicana” value [9]?
A: ~ 4 fold

Q: And the IC50 ([9]; read-out: L. mexicana IC50, promastigotes)?
A: 1.94 µM and 1.9 µM

Q: Which MIC ([10]; Mycobacteroides abscessus, read-out: Ma(R) MIC) does the source give for `CCC1(NCCNCC=C(C)CCC=C(C)C)C2CC3CC(C2)CC1C3` (stereo not drawn) [Compound 8c, N-(3,7-dimethylocta-2,6-dien-1-yl)-N′-(2-ethyladamantan-2-yl)ethane-1,2-diamine] here?
A: 10.7 µM (≈ 3.84 µg/mL)

Q: What about the IC50 ([1]; Trypanosoma cruzi) of the same compound?
A: 8 ± 2 µM

Q: What about the koff [2] of the same compound?
A: 0.841 s⁻¹

Q: And the kon [2]?
A: 4710 M⁻¹ s⁻¹

Q: What about the Kd [2, 15] of the same compound?
A: 180 µM

Q: And the Kd [2, 16]?
A: 190 µM

Q: What about the ka1 ([2]; two-state model) of the same compound?
A: 5473 M⁻¹ s⁻¹

Q: And the ka2 ([2]; two-state model)?
A: 0.006994 s⁻¹

Q: What about the kd1 ([2]; two-state model) of the same compound?
A: 1.284 s⁻¹

Q: What about the kd2 ([2]; two-state model) of the same compound?
A: 0.03012 s⁻¹

Q: And the MIC (M. tuberculosis Erdman)?
A: 6.8 µM (≈ 2.44 µg/mL)

Q: What about the IC50 ([3]; Trypanosoma brucei) of the same compound?
A: 1.4 ± 0.2 µM

Q: And the “Tm (main transition)” value [12]?
A: 51.9 °C

Q: And the ΔH [12]?
A: 11.9 kcal/mol

Q: And the ΔT1/2 [12]?
A: 2.5 °C

Q: What about the “Broadening of main transition peak ΔΤ1/2 compared to pure DSPG” value ([12]; heating) of the same compound?
A: 0.2–1.6 °C

Q: And the IC50 (Bacillus subtilis)?
A: 4.3 µM

Q: And the CC50 (in vitro [4])?
A: 2.5 ± 0.3 µM

Q: And the viability at 2 µM (in vitro [5])?
A: 85%

Q: And the viability at 20 µM (in vitro [5])?
A: 43%

Q: And the IC50 (E. coli; Escherichia coli)?
A: 18 µM

Q: What about the IC50 [6, 17] of the same compound?
A: 0.16 ± 0.07 µM

Q: And the “Increased potency against PfABS compared to SQ109” value ([6]; versus SQ109 1.6 μM)?
A: ~ 10 fold

Q: And the MIC ([13]; Mycobacteroides abscessus, read-out: Ma(S) MIC)?
A: 22 µM (≈ 7.89 µg/mL)

Q: What about the IC50 ([7]; Leishmania donovani) of the same compound?
A: 2.1 ± 0.4 µM

Q: What about the IC50 ([8]; Trypanosoma cruzi, U2OS) of the same compound?
A: 1.3 ± 0.06 µM

Q: And the MIC (M. tuberculosis H37Rv)?
A: 6.8 µM (≈ 2.44 µg/mL)

Q: And the IC50 (M. tuberculosis HN878; [18])?
A: 2 to 3 µM

Q: And the MIC (M. tuberculosis HN878; Mycobacterium tuberculosis)?
A: 1.6 µM (≈ 0.574 µg/mL)

Q: What about the IC50 (M. tuberculosis HN878; [20]) of the same compound?
A: 1.9 ± 0.06 µM

Q: What about the “Tm (main transition)” value [14] of the same compound?
A: 16.9 °C

Q: What about the ΔH [14] of the same compound?
A: 5.74 kcal/mol

Q: What about the ΔT1/2 [14] of the same compound?
A: 2.0 °C

Q: And the “Decrease of Tm compared to DMPC without inhibitor” value [14]?
A: ~6.6 °C

Q: And the IC50 (M. smegmatis; [19])?
A: 4 µM
